Patent US10087142B2, “Azetidine derivatives useful as modulators of cortical cathecolaminergic neurotransmission” (Integrative Research Laboratories Sweden AB, priority 2015, dated 2018)
Where two headings read alike, the source gives them in different places. Marks after values point to notes of the source that are not given here.

How the values were obtained:
[1] = test system: monoamine transmitters (NA, DA and 5-HT); assay: In vivo brain microdialysis of monoamines in striatum and frontal cortex; set-up: species or system rat; details: rats; for response vs control in vivo at 16.7 µmol/kg: Rattus norvegicus, sc
Text: The microdialysis technique (See, for instance, Collin and Ungerstedt, Microdialysis: user's guide, Carnegie Medicin, Stockholm, 1988) is a well-established technique for measuring extracellular levels of neurotransmitters (Ungerstedt, J Int Med, 1991, 230; 365-73). The microdialysis technique was used to measure the effect of compounds disclosed herein upon the efflux of monoamine transmitters (NA, DA and 5-HT) in striatum and frontal cortex in conscious, freely moving rats.
Male Sprague-Dawley rats weighing 280-320 g were used throughout the experiments. Before the experiment the animals were housed in groups, maximum five animals in each cage, with free access to water and food. The animals were housed at least one week prior to surgery and use in the experiments.
A modified version (Waters et al., J Neural Transm Gen Sect, 1994, 98(1); 39-55) of the I-shaped probe (Santiago and Westerink, N-S Arch Pharmacol, 1990, 342; 407-14) with the AN69 polyacrylonitrile/sodium methyl sulfonate copolymer (HOSPAL; o.d/i.d. 310/220 μm: dialysis membrane (Gambro, Lund, Sweden) was used in the microdialysis experiments. In the dorsal striatum, probes with an exposed length of 3 mm of dialysis membrane were used and in the prefrontal cortex the corresponding length was 2.5 mm. The rats were operated under isoflurane inhalation anesthesia while mounted into a Kopf stereotaxic instrument. Coordinates were calculated relative to bregma; dorsal striatum AP+1.0, ML±2.6, DV 6.2; Pf cortex, AP 15+3.2, ML+1.2, DV −4.08°, according to Paxinos and Watson (New York, Academic Press, 1986; FIG. 8 and FIG. 14). The dialysis probe was positioned in a burr hole under stereotaxic guidance and cemented with phosphatine dental cement (DAB Dental).
The rats were housed individually in cages for 48 h before the dialysis experiments, allowing them to recover from surgery and minimizing the risk of drug interactions with the anesthetics during the following experiments. During this period the rats had free access to food and water.
On the day of the experiment the rats were connected to a micro-perfusion pump via a swivel and were replaced in the cage where they could move freely within its confinements. The perfusion medium was a Ringer's solution containing (in mmol/I): NaCl; 140, CaCl2; 1.2, KCl; 3.0, MgCl2; 1.0 (Moghaddam and Bunney. Neurochem., 1989, 53; 652-4). The pump was set to a perfusion speed of 2 μl/min and 40 μl sample volume were collected every 20 min.
The rats were perfused for at least 40 min before sampling began. Five fractions of each 20 min were collected and the last three were used for the establishment of the baseline. After collection of baseline fractions, the pharmacological challenge to the dialysis experiment started. Test compounds were administrated by injection (s.c.) in a volume of 5 ml/kg, with 0.9% NaCl (saline) as vehicle.
The analytical method were based on two chromatographic separations dedicated for amines or acids. Two chromatographic systems shared a common auto injector with a 10-port valve and two sample loops for simultaneous injection on the two systems.
The acids were separated by reversed phase chromatography while the amines were separated by reversed phase ion pairing chromatography preceded by a reverse phase separation in a column switching configuration. Three separation columns (Luna C18 (2), dp 3 μm, 2 mm i.d., Phenomenex) of different lengths were used. Electrochemical detection was accomplished on glassy carbon electrodes (MF-1000, Bioanalytical Systems, Inc.)
The aqueous mobile phase (0.6 ml/min) for the acid system contained citric acid (40 mM, dipotassium hydrogen phosphate 10 mM, methanol 8-11% (v/v) and EDTA 0.1 mM. Column length was 30 mm and detection potential relative to Ag/AgCl reference was 0.74V. […]

[2] = test system: DOPAC; assay: Neurochemistry: tissue levels of DOPAC in brain regions; assay type: in vivo, rat; details: 33 μmol/kg s.c., rats, 65 min before sacrifice, n = 5; for DOPAC frontal cortex ± SEM: frontal cortex tissue; for DOPAC striatum ± SEM: striatum tissue
Text: The change in turnover of dopamine in the terminal areas of the ascending dopaminergic projections of the mammalian brain can be illustrated by measuring of changes in biochemical indices in the brain e.g. changes in concentrations of dopamine metabolites such as 3,4-dihydroxyphenyl-acetic acid (DOPAC) in the striatum and frontal cortex.
The measurement of the tissue content of DOPAC is well established in the field of research since the 1960's. In short, male Sprague-Dawley rats are administered the test compound 60 minutes prior to decapitation. The brain is rapidly taken out and dissected. The striatum is rapidly frozen and subsequently quantitatively analyzed with respect to its content of DOPAC by means of HPLC and electrochemical detection. The number of animals used for each test compound/vehicle is 5/group.
After the behavioural activity sessions, the rats were decapitated and their brains rapidly taken out and put on an ice-cold petri-dish. The brains were dissected into a right and a left part of which the right part was analyzed for neurochemicals with HPLC and the left part was analyzed for gene expression. The limbic forebrain, the striatum, the frontal cortex, the hippocampus and the remaining hemispheral parts of each rat were dissected and frozen. Each brain part was subsequently analyzed with respect to its content of monoamines and their metabolites.
The monoamine transmitter substances (NA (noradrenaline), DA (dopamine), 5-HT (serotonin)) as well as one corresponding acid, (DOPAC (3,4-dihydroxyphenylacetic acid), were quantified in brain tissue homogenates by HPLC separations and electrochemical detection.
The analytical method is based on two chromatographic separations dedicated for amines or acids. Two chromatographic systems share a common auto injector with a 10-port valve and two sample loops for simultaneous injection on the two systems. Both systems are equipped with a reverse phase column (Luna C18 (2), dp 3 μm, 50*2 mm i.d., Phenomenex) and electrochemical detection is accomplished at two potentials on glassy carbon electrodes (MF-1000, Bioanalytical Systems, Inc.). The column effluent is passed via a T-connection to the detection cell or to a waste outlet. This is accomplished by two solenoid valves, which block either the waste or detector outlet. By preventing the chromatographic front from reaching the detector, better detection conditions are achieved. The aqueous mobile phase (0.4 ml/min) for the acid system contains citric acid 14 mM, sodium citrate 10 mM, Methanol 15% (v/v) and EDTA 0.1 mM. Detection potentials relative to Ag/AgCl reference are 0.45 and 0.60V. […] Detection potentials relative to Ag/AgCl reference are 0.45 and 0.65V.

[3] = 16.7 μmol/kg s.c., frontal cortex dialysate, Fumarate Salt
[4] = 16.7 μmol/kg s.c., striatum dialysate, Fumarate Salt
[5] = 16.7 μmol/kg s.c., striatum dialysate, read-out: DA Stri ± SEM, maximum effect compared to baseline
[6] = 50 μmol/kg s.c., striatum dialysate

In the case of `Fc1cc(F)cc(C(F)C2CNC2)c1.O=C(O)/C=C/C(=O)O` (single isomer, unassigned; (-)) [Example 3, (−)-3-[(3,5-Difluorophenyl)(Fluoro)Methyl]Azetidine Fumarate Salt], the “5-HT FC ± SEM, maximum effect compared to baseline” value [1, 3] is reported as 137 ± 16^c percent of control, the “DA FC ± SEM, maximum effect compared to baseline” value [1, 3] is reported as 444 ± 51^c percent of control and the “NA FC ± SEM, maximum effect compared to baseline” value [1, 3] is reported as 534 ± 45^c percent of control. For the same compound, the “5-HT Stri ± SEM, maximum effect compared to baseline” value [1, 4] was 124 ± 6^c percent of control, the “NA Stri ± SEM, maximum effect compared to baseline” value [1, 4] was 137^a percent of control and the response vs control in vivo at 16.7 µmol/kg [1, 5] was 116 ± 4%. For the same compound, the “DOPAC frontal cortex ± SEM” value [2] was 161 ± 6% of control means and the “DOPAC striatum ± SEM” value [2] was 83 ± 2% of control means.
For `Cl.Fc1cccc(C(F)C2CNC2)c1F` (single isomer, unassigned; (-)) [Example 1, (−)-3-[(2,3-Difluorophenyl)(Fluoro)Methyl]Azetidine Hydrochloric Acid Salt], the “NA Stri ± SEM, maximum effect compared to baseline” value ([1]; 16.7 μmol/kg s.c., striatum dialysate) was 150 ± 30^c percent of control, the “5-HT FC ± SEM, maximum effect compared to baseline” value ([1]; 50 μmol/kg s.c., frontal cortex dialysate) was 188 ± 16^c percent of control and the “5-HT Stri ± SEM, maximum effect compared to baseline” value [1, 6] was 184^a percent of control. The “DA Stri ± SEM, maximum effect compared to baseline” value [1, 6] was 204 ± 90^b percent of control, the “NA Stri ± SEM, maximum effect compared to baseline” value [1, 6] was 145^a percent of control and the response vs control in vivo at 16.7 µmol/kg ([1]; 16.7 μmol/kg s.c., frontal cortex dialysate, read-out: 5-HT FC ± SEM, maximum effect compared to baseline) was 146 ± 8%. The response vs control in vivo at 16.7 µmol/kg ([1]; 16.7 μmol/kg s.c., frontal cortex dialysate, read-out: DA FC ± SEM, maximum effect compared to baseline) was 495 ± 58%, the response vs control in vivo at 16.7 µmol/kg ([1]; 16.7 μmol/kg s.c., frontal cortex dialysate, read-out: NA FC ± SEM, maximum effect compared to baseline) was 688 ± 102% and the response vs control in vivo at 16.7 µmol/kg ([1]; 16.7 μmol/kg s.c., striatum dialysate, read-out: 5-HT Stri ± SEM, maximum effect compared to baseline) was 171 ± 21%. The response vs control in vivo at 16.7 µmol/kg [1, 5] was 135 ± 19%, the “DOPAC frontal cortex ± SEM” value [2] was 188 ± 20% of control means and the “DOPAC striatum ± SEM” value [2] was 100 ± 8% of control means.
